Legend:
Test in all cases: MIC by agar-dilution, in vitro antibacterial test
Format in all cases: cell-based
Salmonella dublin = conditions: Code No. A20, Jewell and Pearmain agar medium, inoculum ~10^5 CFU
Text: (§1) As noted above the cephalosporin derivative of the invention has antibacterial properties, having a broad spectrum of activity in vitro against standard laboratory microorganisms, both Gram-negative and Gram-positive, which are used to screen for activity against pathogenic bacteria. The antibacterial spectrum and potency of a particular compound may be determined in a standard test system.
(§2) The results set out in the following Table of the compound described in Example 1 are illustrative of the biological activity of the compounds of the present invention. The results are those obtained on a standard in vitro test system using Jewell and Pearmain agar medium. The antibacterial activity is described in terms of the minimum inhibitory concentration (MIC) determined by agar - dilution technique with an inoculum size of ~10^5 CFU.

Serratia marescens = conditions: Code No. A16, Jewell and Pearmain agar medium, inoculum ~10^5 CFU
Text: as §1, §2

Staph. aureus = conditions: Code No. A6, Jewell and Pearmain agar medium, inoculum ~10^5 CFU
Text: as §1, §2

E. coli = conditions: Code No. A8, Jewell and Pearmain agar medium, inoculum ~10^5 CFU
Text: as §1, §2

Ps. aeruginosa = conditions: Code No. A21, Jewell and Pearmain agar medium, inoculum ~10^5 CFU
Text: as §1, §2

K. aerogenes = conditions: Code No. A10, Jewell and Pearmain agar medium, inoculum ~10^5 CFU
Text: as §1, §2

Strep. pyrogenes = conditions: Code No. A1, Jewell and Pearmain agar medium, inoculum ~10^5 CFU
Text: as §1, §2

Ent. cloacae = conditions: Code No. A13, Jewell and Pearmain agar medium, inoculum ~10^5 CFU
Text: as §1, §2

Proteus mirabilis = conditions: Code No. A18, Jewell and Pearmain agar medium, inoculum ~10^5 CFU
Text: as §1, §2

## CC(=O)OCC1=C(C(=O)O)N2C(=O)C(Nc3ncc[nH]3)C2[S+]([O-])C1.O=C(O)C(F)(F)F (stereo not drawn) [Example 1, 3-acetoxymethyl-7-(imidazol-2-yl)aminoceph-3-em-1β-oxide-4-carboxylicacid trifluoroacetate]
Salmonella dublin
  minimum inhibitory concentration (MIC): 1 µg/mL
Serratia marescens
  minimum inhibitory concentration (MIC): 64 µg/mL
Staph. aureus
  minimum inhibitory concentration (MIC): > 128 µg/mL
E. coli
  minimum inhibitory concentration (MIC): 2 µg/mL
Ps. aeruginosa
  minimum inhibitory concentration (MIC): > 128 µg/mL
K. aerogenes
  minimum inhibitory concentration (MIC): 4 µg/mL
Strep. pyrogenes
  minimum inhibitory concentration (MIC): 64 µg/mL
Ent. cloacae
  minimum inhibitory concentration (MIC): 2 µg/mL
Proteus mirabilis
  minimum inhibitory concentration (MIC): > 128 µg/mL

From patent US4504478A, “Cephalosporin-1-oxide derivatives” (Imperial Chemical Industries PLC, priority 1982, dated 1985)
